In the supplement of paper PMC10307832:

How the values were obtained:
Assay in all cases: relative viability (nuclei count vs DMSO), 5 days (fraction); higher = more cells survive
EHT 1864 = compound: C1COCCN1CC2=CC(=O)C(=CO2)OCCCCCSC3=C4C=CC(=CC4=NC=C3)C(F)(F)F [EHT 1864]
Outline: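 Viability here means nuclei in treated wells divided by nuclei in vehicle wells, reported as the median across plates. Only plates with control CV below 25% and at least one doubling passed. Lung cancer cell lines in 1536-well plates were exposed to five √10-spaced library-drug doses for 5 days and counted from 4× Hoechst images in MetaXpress.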

EHT 1864 + Bortezomib = compound: C1COCCN1CC2=CC(=O)C(=CO2)OCCCCCSC3=C4C=CC(=CC4=NC=C3)C(F)(F)F [EHT 1864] + CC(C)C[C@H](NC(=O)[C@H](Cc1ccccc1)NC(=O)c1cnccn1)B(O)O [Bortezomib] (partner 0.002 µM)
Outline: (§1)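 Nuclei were stained with Hoechst during a one-step fixation (final 0.05% Triton X-100, 1% formaldehyde, 1 ug/ml Hoechst) carried out 5 days after dosing, then counted on 4× images. The cells, lung cancer lines in 1536-well plates, had been dosed by pin tool the day after seeding with one drug alone or a fixed anchor-drug dose plus five library-drug doses (not always all listed) in √10 steps. Relative viability is the nuclei count in treated wells divided by that in vehicle wells, and each value is the median of duplicate plates.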

EHT 1864 + Pictilisib = compound: C1COCCN1CC2=CC(=O)C(=CO2)OCCCCCSC3=C4C=CC(=CC4=NC=C3)C(F)(F)F [EHT 1864] + CS(=O)(=O)N1CCN(Cc2cc3nc(-c4cccc5[nH]ncc45)nc(N4CCOCC4)c3s2)CC1 [Pictilisib] (partner 1 µM)
Outline: as §1

EHT 1864 + Navitoclax = compound: C1COCCN1CC2=CC(=O)C(=CO2)OCCCCCSC3=C4C=CC(=CC4=NC=C3)C(F)(F)F [EHT 1864] + CC1(C)CCC(c2ccc(Cl)cc2)=C(CN2CCN(c3ccc(C(=O)NS(=O)(=O)c4ccc(N[C@H](CCN5CCOCC5)CSc5ccccc5)c(S(=O)(=O)C(F)(F)F)c4)cc3)CC2)C1 [Navitoclax] (partner 0.5 µM)
Outline: as §1

EHT 1864 + Lapatinib = compound: C1COCCN1CC2=CC(=O)C(=CO2)OCCCCCSC3=C4C=CC(=CC4=NC=C3)C(F)(F)F [EHT 1864] + CS(=O)(=O)CCNCc1ccc(-c2ccc3ncnc(Nc4ccc(OCc5cccc(F)c5)c(Cl)c4)c3c2)o1 [Lapatinib] (partner 2 µM)
Outline: as §1

EHT 1864 + Foretinib = compound: C1COCCN1CC2=CC(=O)C(=CO2)OCCCCCSC3=C4C=CC(=CC4=NC=C3)C(F)(F)F [EHT 1864] + COc1cc2c(Oc3ccc(NC(=O)C4(C(=O)Nc5ccc(F)cc5)CC4)cc3F)ccnc2cc1OCCCN1CCOCC1 [Foretinib] (partner 0.25 µM)
Outline: as §1

EHT 1864 + Olaparib = compound: C1COCCN1CC2=CC(=O)C(=CO2)OCCCCCSC3=C4C=CC(=CC4=NC=C3)C(F)(F)F [EHT 1864] + O=C(c1cc(Cc2n[nH]c(=O)c3ccccc23)ccc1F)N1CCN(C(=O)C2CC2)CC1 [Olaparib] (partner 8 µM)
Outline: as §1

EHT 1864 + Linsitinib = compound: C1COCCN1CC2=CC(=O)C(=CO2)OCCCCCSC3=C4C=CC(=CC4=NC=C3)C(F)(F)F [EHT 1864] + C[C@]1(O)C[C@@H](c2nc(-c3ccc4ccc(-c5ccccc5)nc4c3)c3c(N)nccn32)C1 [Linsitinib] (partner 1 µM)
Outline: as §1

EHT 1864 + Alpelisib = compound: C1COCCN1CC2=CC(=O)C(=CO2)OCCCCCSC3=C4C=CC(=CC4=NC=C3)C(F)(F)F [EHT 1864] + Cc1nc(NC(=O)N2CCC[C@H]2C(N)=O)sc1-c1ccnc(C(C)(C)C(F)(F)F)c1 [Alpelisib] (partner 2 µM)
Outline: as §1

EHT 1864 + Crizotinib = compound: C1COCCN1CC2=CC(=O)C(=CO2)OCCCCCSC3=C4C=CC(=CC4=NC=C3)C(F)(F)F [EHT 1864] + C[C@@H](Oc1cc(-c2cnn(C3CCNCC3)c2)cnc1N)c1c(Cl)ccc(F)c1Cl [Crizotinib] (partner 1 µM)
Outline: as §1

Cell Line Calu-6 has a relative viability (EHT 1864; 0.04 µM) of 1, a relative viability (EHT 1864; 0.1265 µM) of 0.93 and a relative viability (EHT 1864; 0.4 µM) of 1.01. For the same cell line, the relative viability (EHT 1864; 1.265 µM) was 0.991, the relative viability (EHT 1864; 4 µM) was 0.955 and the relative viability (EHT 1864 + Bortezomib; first compound 0.04 µM) was 0.97. It also gave a relative viability (EHT 1864 + Bortezomib; first compound 0.1265 µM) of 0.844, a relative viability (EHT 1864 + Bortezomib; first compound 0.4 µM) of 0.846 and a relative viability (EHT 1864 + Bortezomib; first compound 1.265 µM) of 1.11. For the same cell line, the relative viability (EHT 1864 + Bortezomib; first compound 4 µM) was 0.917, the relative viability (EHT 1864 + Pictilisib; first compound 0.04 µM) was 0.899 and the relative viability (EHT 1864 + Pictilisib; first compound 0.1265 µM) was 0.866. It also gave a relative viability (EHT 1864 + Pictilisib; first compound 0.4 µM) of 0.862, a relative viability (EHT 1864 + Pictilisib; first compound 1.265 µM) of 0.902 and a relative viability (EHT 1864 + Pictilisib; first compound 4 µM) of 0.83. It also gave a relative viability (EHT 1864 + Navitoclax; first compound 0.04 µM) of 0.816, a relative viability (EHT 1864 + Navitoclax; first compound 0.1265 µM) of 0.7 and a relative viability (EHT 1864 + Navitoclax; first compound 0.4 µM) of 0.876. For the same cell line, the relative viability (EHT 1864 + Navitoclax; first compound 1.265 µM) was 0.757, the relative viability (EHT 1864 + Navitoclax; first compound 4 µM) was 0.764 and the relative viability (EHT 1864 + Lapatinib; first compound 0.04 µM) was 1.03. For the same cell line, the relative viability (EHT 1864 + Lapatinib; first compound 0.1265 µM) was 0.933, the relative viability (EHT 1864 + Lapatinib; first compound 0.4 µM) was 1.03 and the relative viability (EHT 1864 + Lapatinib; first compound 1.265 µM) was 1.04. It also gave a relative viability (EHT 1864 + Lapatinib; first compound 4 µM) of 0.857, a relative viability (EHT 1864 + Foretinib; first compound 0.04 µM) of 0.932 and a relative viability (EHT 1864 + Foretinib; first compound 0.1265 µM) of 0.853. The relative viability (EHT 1864 + Foretinib; first compound 0.4 µM) was 0.846, the relative viability (EHT 1864 + Foretinib; first compound 1.265 µM) was 0.913 and the relative viability (EHT 1864 + Foretinib; first compound 4 µM) was 0.87. The relative viability (EHT 1864 + Olaparib; first compound 0.04 µM) was 0.615, the relative viability (EHT 1864 + Olaparib; first compound 0.1265 µM) was 0.563 and the relative viability (EHT 1864 + Olaparib; first compound 0.4 µM) was 0.594. The relative viability (EHT 1864 + Olaparib; first compound 1.265 µM) was 0.507, the relative viability (EHT 1864 + Olaparib; first compound 4 µM) was 0.502 and the relative viability (EHT 1864 + Linsitinib; first compound 0.04 µM) was 0.99. For the same cell line, the relative viability (EHT 1864 + Linsitinib; first compound 0.1265 µM) was 0.737, the relative viability (EHT 1864 + Linsitinib; first compound 0.4 µM) was 0.96 and the relative viability (EHT 1864 + Linsitinib; first compound 1.265 µM) was 0.875. It also gave a relative viability (EHT 1864 + Linsitinib; first compound 4 µM) of 0.893, a relative viability (EHT 1864 + Alpelisib; first compound 0.04 µM) of 0.983 and a relative viability (EHT 1864 + Alpelisib; first compound 0.1265 µM) of 0.932. The relative viability (EHT 1864 + Alpelisib; first compound 0.4 µM) was 0.948, the relative viability (EHT 1864 + Alpelisib; first compound 1.265 µM) was 1.01 and the relative viability (EHT 1864 + Alpelisib; first compound 4 µM) was 0.904. It also gave a relative viability (EHT 1864 + Crizotinib; first compound 0.04 µM) of 0.763, a relative viability (EHT 1864 + Crizotinib; first compound 0.1265 µM) of 0.767 and a relative viability (EHT 1864 + Crizotinib; first compound 0.4 µM) of 0.676. For the same cell line, the relative viability (EHT 1864 + Crizotinib; first compound 1.265 µM) was 0.748 and the relative viability (EHT 1864 + Crizotinib; first compound 4 µM) was 0.733.
